Assay results taken from patent US9340616B2, “Methods and compositions for heptameric targeting ligands” (The University of North Carolina at Chapel Hill, priority 2011, dated 2016).

Key:
EGFR-positive A431 cells = test: MTS cell proliferation assay, A431; assay type: cell-based; conditions: 10 μM, 24 h, positive control
Protocol: (§1) FIGS. 10A-C. Cellular toxicity of heptameric molecules. A) A431 (EGFR), B) SK-OV3 (HER2), and C) LNCaP cells were incubated with 1 uM of each of the heptamer molecules for 24 hours at 37° C. Cisplatin (10 uM) was also incubated with each of the cells as a positive control. Cells without incubation with any proteins or cisplatin were used as a negative control.
(§2) A CellTiter96 Aqueous Non-Radioactive Cell Proliferation Assay kit from Promega (Madison, Wis.) was used for MTS assay. Approximately 10^4 cells were seeded on each well in a 96-well plate and grown for 16 hours at 37° C. Each heptameric molecule was incubated with the cells for 24 hours and Cis-platinum (II) diamine dichloride (cisplatin, CDDP) (Sigma-Aldrich Chemical Co) was used as positive control. 20 μl of MTS/PMS solution was added into each well followed by incubation for 4 hours at 37° C. The absorbance at 490 nm was recorded using an ELISA plate reader.
(§3) A CellTiter96 Aqueous Non-Radioactive Cell Proliferation Assay kit from Promega (Madision, Wis.) was used for the MTS assay. Approximately 1×10^4 cells were seeded in each well of a 96-well plate and grown for 16 h at 37° C. Each heptameric molecule was incubated with the cells for 24 h. 10 μM Cis-platinum (II) diamine dichloride (Sigma-Aldrich Chemical Co, St Louis, Mo.) was used as a positive control. […] The absorbance at 490 nm was recorded using an ELISA plate reader.

[1] = tested on: HER2-positive SK-OV3 cells; test: MTS cell proliferation assay, SK-OV3; assay type: cell-based; conditions: 10 μM, 24 h, positive control
Protocol: as §1, §2, §3

In the case of N.N.[Cl][Pt][Cl] [cisplatin, Cis-platinum (II) diamine dichloride], the “cell proliferation inhibited to” value (EGFR-positive A431 cells) is reported as 50% and the “cell proliferation inhibited to” value [1] is reported as 50%.
